Data as given in US20260217701A1, “SELECTIVE BET INHIBITORS AND USES THEREOF” (Tay Therapeutics Limited, priority 2022, published 2026).
Several values for one entry are separate records, joined by “and”; a condition that tells them apart may be missing. Equal values may be shown once. Read-outs that look alike come from different tables or passages of the source.

Columns and labels:
[1] = Rat PK study #2 (Compound A PO 5 mg/kg, DMSO/PEG-400/water); format: in vivo, SD rats
Method: For the second rat pharmacokinetic study, the pharmacokinetics of Compound A were assessed in male SD rats. Compound A was prepared in a formulation of 5% DMSO, 40% PEG-400, and 55% Milli-Q water (see formulation in Table 2D) and delivered to animals orally (PO) at a dose of 5 mg/kg. Animals (n=3) were then monitored over a 24-hour period.
Blood samples (~0.2 mL) were collected according to a schedule (0.083, 0.25, 0.5, 1, 2, 4, 8, and 24 h following the initial dosing) by jugular vein by cannulation and EDTA-K2 was used as anticoagulant. Within 30 minutes of collection, the samples were centrifuged at approximately 4000 times g-force for 5 minutes at 4° C. to obtain blood plasma. The plasma samples were immediately divided into two aliquots (~75 μL each), transferred to a cryogenic vial, and stored in a freezer at −75±15° C. prior to analysis.
The concentration of Compound A in plasma samples was determined by liquid chromatography-mass spectrometry (LC-MS/MS) using a Shimadzu HPLC (DGU-405; LC-30AD XS CN; SIL-40AC XSCN; Plate Changer CN; CTO-40C CN; and CBM-40 CN) and an AB API 7500+LC/MS/MS instrument. Samples were analyzed on a Raptor Biphenyl 2.7 μm (50×2.1 mm) column. Solution A in the mobile phase was 95% water (0.1% formic acid) and solution B was 95% acetonitrile in water (0.1% formic acid), injection volume was 15 μL, and flow rate was 0.6 mL/min.
To prepare samples for analysis, serial concentrations were prepared by diluting the stock solution of analyte with a 50% acetonitrile in water solution. 5 μL working solutions (5, 10, 20, 50, 100, 500, 1000, 5000, and 10000 ng/ml) were added to 50 μL of the blank SD rat plasma to achieve calibration standards of ~0.5 to 1000 ng/ml (0.5, 1, 2, 5, 10, 50, 100, 500, and 1000 ng/ml) in a total volume of 55 μL. Five quality control samples at 1 ng/ml, 2 ng/ml, 5 ng/ml 50 ng/ml, and 800 ng/ml for plasma were prepared independently of those used for the calibration curves. These QC samples were prepared on the day of analysis in the same way as calibration standards.
55 μL of standards, 55 μL of QC samples and 55 μL of unknown samples (50 μL of unknown rat plasma with 5 μL of blank solution) were added to 200 μL of acetonitrile containing IS mixture (verapamil) for precipitating protein respectively. The samples were then vortexed for 30 s. After centrifugation at 4° C., 3900 rpm for 15 min, the supernatant was diluted 3 times with water. […] of diluted supernatant was injected into the LC/MS/MS system for quantitative analysis.

lupus = experiment: SLE (lupus) model: proteinuria scores; format: in vivo, MRL/MpJ-Faslpr mice; settings: for End proteinuria score ± SEM: end of study (Week 19)
Method: Female MRL/MpJ-Faslpr mice (The Jackson Laboratory) were used to assess the efficacy of Compound A in treating lupus. Starting when animals were 10 weeks of age, protein concentration in urine was measured using urine dipsticks.
At the start of the study, each group in the study had two animals that were 9 weeks old, and all others were 10 weeks old. Dosing of all animals with the test compounds began when the older animals were 11 weeks old. […] […] Dosing was at a consistent time each dosing day throughout the study.
Compound A may be formulated as illustrated in Experimental Method A (see Table 2E.). […] A stock solution of Compound A in DMSO (stock solution concentration of Compound A of 40 mg/mL) was prepared and aliquots for weekly preparations were frozen at −20° C. On each preparation day, a stock solution aliquot was thawed and diluted with other vehicle components to the desired concentration. Formulated Compound A and vehicle were at room temperature for dosing.
The study began when the older animals were 11 weeks old, and concluded when the older animals were 19 weeks old. Body weight was recorded once a week, with the exception of two weight measurements taken the first week of the study (when the older animals were 11 weeks old). Proteinuria was measured in the urine of animals with urine dipsticks once a week, starting when the older animals were 10 weeks old. […] Blood samples were taken retro-orbitally at the start of the study to establish a baseline (15 animals, 3 per group), and when the older animals were 16 weeks (all animals) and when animals were 19 weeks (all animals) at the conclusion of the study. Blood urea nitrogen (BUN) was measured in all animals at study termination in blood samples. After blood collection, animals were euthanized, perfused with PBS, and the left kidneys were collected and weighed and fixed in 10% buffered formalin. Left kidneys were then processed to a formalin-fixed, paraffin-embedded (FFPE) block, and histology was analyzed in Periodic Acid-Schiff-stained sections (1 section per slide), using the criteria described in Alperovich et al., Lupus, 16:18-24 (2007). Right kidneys were weighed and snap-frozen at −80° C. Spleens were also collected and weighed. SLE in animals treated with a BET inhibitor and vehicle.

[2] = SD rats, PO 5 mg/kg, DMSO/PEG-400/Milli-Q water formulation, individual animals, 5 mg/kg
[3] = SD rats, PO 5 mg/kg, DMSO/PEG-400/Milli-Q water formulation, mean of 3 animals
[4] = male, Sprague-Dawley, rat, plasma, po, 5 mg/kg, SD rats, PO 5 mg/kg, DMSO/PEG-400/Milli-Q water formulation, mean of 3 animals

Cn1cc(-c2ccccc2)c(-c2cn(C)c(=O)c3[nH]c(-c4cnn(C(F)(F)F)c4)cc23)cc1=O [Compound A, 6-methyl-4-(1-methyl-2-oxo-5-phenyl-1,2-dihydropyridin-4-yl)-2-(1-(trifluoromethyl)-1H-pyrazol-4-yl)-1,6-dihydro-7H-pyrrolo[2,3-c]pyridin-7-one]
Clinical observations ([1]; 5 mg/kg PO, 24 h, one animal soft feces at 8 h): no abnormalities recorded | Plasma Concentration ([1]; SD rats, PO 5 mg/kg, DMSO/PEG-400/Milli-Q water formulation, 0.083 h, individual animals, 5 mg/kg): 9.76 ng/mL and 0.719 ng/mL and 2.15 ng/mL | Plasma Concentration ([1]; SD rats, PO 5 mg/kg, DMSO/PEG-400/Milli-Q water formulation, 0.25 h, individual animals, 5 mg/kg): 7.42 ng/mL and 5.44 ng/mL and 12.5 ng/mL | Plasma Concentration ([1]; SD rats, PO 5 mg/kg, DMSO/PEG-400/Milli-Q water formulation, 0.5 h, individual animals, 5 mg/kg): 31.9 ng/mL and 15.4 ng/mL and 32.7 ng/mL | Plasma Concentration ([1]; SD rats, PO 5 mg/kg, DMSO/PEG-400/Milli-Q water formulation, 1 h, individual animals, 5 mg/kg): 62.6 ng/mL and 38.4 ng/mL and 101 ng/mL | Plasma Concentration ([1]; SD rats, PO 5 mg/kg, DMSO/PEG-400/Milli-Q water formulation, 2 h, individual animals, 5 mg/kg): 170 ng/mL and 64.8 ng/mL and 272 ng/mL | Plasma Concentration ([1]; SD rats, PO 5 mg/kg, DMSO/PEG-400/Milli-Q water formulation, 4 h, individual animals, 5 mg/kg): 472 ng/mL and 218 ng/mL and 496 ng/mL | Plasma Concentration ([1]; SD rats, PO 5 mg/kg, DMSO/PEG-400/Milli-Q water formulation, 8 h, individual animals, 5 mg/kg): 532 ng/mL and 181 ng/mL and 302 ng/mL | Plasma Concentration ([1]; SD rats, PO 5 mg/kg, DMSO/PEG-400/Milli-Q water formulation, 24 h, individual animals, 5 mg/kg): 2.11 ng/mL and 5.81 ng/mL and 6.35 ng/mL | AUClast [1, 2]: 7070 ng·h/mL and 2643 ng·h/mL and 5058 ng·h/mL | AUClast/D [1, 2]: 1414 mg·h/mL and 529 mg·h/mL and 1012 mg·h/mL | Cmax [1, 2]: 532 ng/mL and 218 ng/mL and 496 ng/mL | F [1, 2]: 81.5% and 30.5% and 58.3% | AUClast/D [1, 3]: 985 mg·h/mL | F [1, 3]: 56.8% | concentration at 1 h ([1]; male, SD, rat, plasma, po, 5 mg/kg, SD rats, PO 5 mg/kg, DMSO/PEG-400/Milli-Q water formulation, 1 h, mean of 3 animals): 67 ng/mL | concentration at 2 h ([1]; male, SD, rat, plasma, po, 5 mg/kg, SD rats, PO 5 mg/kg, DMSO/PEG-400/Milli-Q water formulation, 2 h, mean of 3 animals): 169 ng/mL | concentration at 4 h ([1]; male, SD, rat, plasma, po, 5 mg/kg, SD rats, PO 5 mg/kg, DMSO/PEG-400/Milli-Q water formulation, 4 h, mean of 3 animals): 395 ng/mL | concentration at 8 h ([1]; male, SD, rat, plasma, po, 5 mg/kg, SD rats, PO 5 mg/kg, DMSO/PEG-400/Milli-Q water formulation, 8 h, mean of 3 animals): 338 ng/mL | concentration at 0.083 h ([1]; male, Sprague-Dawley, rat, plasma, po, 5 mg/kg, SD rats, PO 5 mg/kg, DMSO/PEG-400/Milli-Q water formulation, 0.083 h, mean of 3 animals): 4.21 ng/mL | concentration at 0.25 h ([1]; male, Sprague-Dawley, rat, plasma, po, 5 mg/kg, SD rats, PO 5 mg/kg, DMSO/PEG-400/Milli-Q water formulation, 0.25 h, mean of 3 animals): 8.5 ng/mL | concentration at 0.5 h ([1]; male, Sprague-Dawley, rat, plasma, po, 5 mg/kg, SD rats, PO 5 mg/kg, DMSO/PEG-400/Milli-Q water formulation, 0.5 h, mean of 3 animals): 26.7 ng/mL | concentration at 24 h ([1]; male, Sprague-Dawley, rat, plasma, po, 5 mg/kg, SD rats, PO 5 mg/kg, DMSO/PEG-400/Milli-Q water formulation, 24 h, mean of 3 animals): 4.75 ng/mL | Tmax ([1]; male, Sprague-Dawley, rat, plasma, po, 5 mg/kg, SD rats, PO 5 mg/kg, DMSO/PEG-400/Milli-Q water formulation, individual animals): 8 h | AUC(0-t) [1, 4]: 4920 ng·h/mL | Tmax [1, 4]: 5.33 h | Cmax ([1]; male, Sprague-Dawley, rat, plasma, po, 5 mg/kg, SD rats, PO 5 mg/kg, DMSO/PEG-400/Milli-Q water formulation, mean of 3 animals, read-out: Cmax): 415 ng/mL | Proteinuria levels, lower than vehicle-treated group (lupus; 10 mg/kg, Week 19): about 74.8% | Proteinuria levels (lupus; 1, 3, 10 mg/kg): reduced proteinuria levels in a dose-dependent manner | Mean proteinuria score (lupus; Compound A 1 mg/kg PO QD, Week 10): 1.96 | Mean proteinuria score (lupus; Compound A 1 mg/kg PO QD, Week 11): 1.96 + | Mean proteinuria score (lupus; Compound A 1 mg/kg PO QD, Week 12): 2.29 | Mean proteinuria score (lupus; Compound A 1 mg/kg PO QD, Week 13): 2.57 | Mean proteinuria score (lupus; Compound A 1 mg/kg PO QD, Week 14): 2.79 | Mean proteinuria score (lupus; Compound A 1 mg/kg PO QD, Week 15): 3.07 | Mean proteinuria score (lupus; Compound A 1 mg/kg PO QD, Week 16): 2.82 | Mean proteinuria score (lupus; Compound A 1 mg/kg PO QD, Week 17): 3.07 | Mean proteinuria score (lupus; Compound A 1 mg/kg PO QD, Week 18): 3.11± | Mean proteinuria score (lupus; Compound A 1 mg/kg PO QD, Week 19): 3.36 | End proteinuria score ± SEM (lupus; Compound A 1 mg/kg PO QD): 3.36 ± 0.19 | Mean proteinuria score (lupus; Compound A 3 mg/kg PO QD, Week 10): 1.96 | Mean proteinuria score (lupus; Compound A 3 mg/kg PO QD, Week 11): 1.96 | Mean proteinuria score (lupus; Compound A 3 mg/kg PO QD, Week 12): 2.04 | Mean proteinuria score (lupus; Compound A 3 mg/kg PO QD, Week 13): 2.50 | Mean proteinuria score (lupus; Compound A 3 mg/kg PO QD, Week 14): 2.46 | Mean proteinuria score (lupus; Compound A 3 mg/kg PO QD, Week 15): 2.85 | Mean proteinuria score (lupus; Compound A 3 mg/kg PO QD, Week 16): 2.65 | Mean proteinuria score (lupus; Compound A 3 mg/kg PO QD, Week 17): 2.77 | Mean proteinuria score (lupus; Compound A 3 mg/kg PO QD, Week 18): 2.73 | Mean proteinuria score (lupus; Compound A 3 mg/kg PO QD, Week 19): 3.04 | End proteinuria score ± SEM (lupus; Compound A 3 mg/kg PO QD): 3.04 ± 0.24 | Mean proteinuria score (lupus; Compound A 10 mg/kg PO QD, Week 10): 1.96 | Mean proteinuria score (lupus; Compound A 10 mg/kg PO QD, Week 11): 1.96 | Mean proteinuria score (lupus; Compound A 10 mg/kg PO QD, Week 12): 2.04 | Mean proteinuria score (lupus; Compound A 10 mg/kg PO QD, Week 13): 2.21 | Mean proteinuria score (lupus; Compound A 10 mg/kg PO QD, Week 14): 2.07 | Mean proteinuria score (lupus; Compound A 10 mg/kg PO QD, Week 15): 2.43 | Mean proteinuria score (lupus; Compound A 10 mg/kg PO QD, Week 16): 2.32 | Mean proteinuria score (lupus; Compound A 10 mg/kg PO QD, Week 17): 2.32 | Mean proteinuria score (lupus; Compound A 10 mg/kg PO QD, Week 18): 2.00 | Mean proteinuria score (lupus; Compound A 10 mg/kg PO QD, Week 19): 2.32 | End proteinuria score ± SEM (lupus; Compound A 10 mg/kg PO QD): 2.32 ± 0.15
